# Measurements: patent US20120305476A1, “TREATMENT METHOD FOR REDUCING THE PRODUCTION OF AN H2S COMPOUND IN AQUEOUS EFFLUENTS PASSING INTO A PIPE” (CENTRE NATIONAL DE LA RECHERCHE SCIENTIFIQUE (CNRS), priority 2010, published 2012)
# Like-named read-outs stand apart in the source and are kept apart here.
# How the values were obtained:
# [1] = system: Desulfovibrio vulgaris Hindelborough (DvH); experiment: H2S production by stationary-phase DvH culture on lactate/sulfate medium with metabolic inhibitors; assay type: cell-based; conditions: for effect of metabolic inhibitor on DvH culture / H2S production: tested at different concentrations
# Protocol: Experiments were carried out with the SRB bacterium Desulfovibrio vulgaris Hindelborough (DvH) for which the genome has been sequenced and which is the model system for the study of sulfate-reducing bacteria.
# The culture medium was a lactate/sulfate medium comprising: sodium sulfate 28 mM, magnesium sulfate 8 mM, lactate 45 mM and oligoelements (iron, Zn, Mn, Cu, Co, Mo, Ni, Se, W, Mg).
# Various metabolic inhibitors were tested at different concentrations; examples were the addition of iron, oxygen, or a detergent. […] The study was continued by looking at the effect of adding small defined quantities of nitrite and nitrate on the production of H2S by the SRB.
# [2] = system: DvH+Shewanella consortium; conditions: 5 mM; for production of H2S: FIG. 3 panel B
# Excerpt: FIG. 3 represents the effect of adding exogenous bacteria of the Shewanella type on the growth of a strain of sulfate-reducing bacteria, DvH, in the presence of nitrate or nitrite (panel A, %=quantity of biomass expressed as a % of the optical density (OD) at 600 nm [nanometers], such that 100% represents the OD at 600 nm for the biomass of a culture of DvH on a lactate/sulfate medium in the absence of treatment) and on the production of H2S (panel B, mM H2S). The control (growth and production of H2S) used a DvH culture with or without the addition of inhibitor. The effect of adding the Shewanella bacteria on the growth and production of H2S is presented in the presence of nitrate (+nitrite) and in the absence of nitrite (nitrite). The Shewanella bacteria alone had no significant effect on H2S production. In FIG. 3, the various symbols represent the experiments under the following conditions: ? =5 mM of nitrate on a DvH+Shewanella consortium, ? =consortium of DvH+Shewanella bacteria in the presence of 5 mM of nitrite, ? =presence of DvH bacteria alone, ? =presence of DvH bacteria alone+nitrite;
# A wide range of non-pathogenic aerobic and anaerobic bacteria known to be decontaminants that are compatible with a toxic environment was tested, including the following Gram− aerobic bacteria: Shewanella oneidensis, Rhodobacter sphaeroides, Rhodobacter denitrificans, R. velkampi, Pseudomonas stutzeri, Pseudomonas zobell and Rhospeudomonas palustri, as well as the following anaerobic Gram+ bacteria: Bacillus mojavensis and Bacillus amiloliquefaciens.
# However, it has been discovered that it is possible to overcome this bactericidal effect problem by adding exogenic bacteria.
# [3] = system: sulfate-reducing bacteria (SRB)
# Protocol: Experiments were carried out on a sewerage system diagrammatically shown in FIG. 6, comprising a cesspool 3 supplied with effluent 1 from a conduit 11, a lifting pump 4 that was used to supply a force main 2 from the cesspool 3 to a holding tank 8 cooperating with a gravity fed transfer conduit 9 to a treatment plant (not shown).
# The force main 2 was 1170 m [meter] long with a nominal diameter of 250 mm [millimeter], giving a volume of 57.5 m^3. The delivery of the lifting pump was 150 m^3/hour. A nitrite tank 12 cooperated with a dosing pump 7 to inject nitrite into the effluents entering the force main 2.
# Sodium nitrite NaNO2 was tested in 40% by weight solution with a density of 1.3. This reagent was injected directly into the effluent pumping pit almost level with the inlet thereof into the force main via a dedicated dosing pump 7 that could reach a delivery of up to 14 L/h. Start-up of the dosing pump 7 was linked with that of the lifting pump 4 with the two pumps being stopped by a low level of effluents in the cesspool 3.
# Various measurements for the concentration of sulfide in water leaving the force main were carried out. The concentration of sulfide in water was determined by means of an assay kit using the reaction of H2S with aniline forming a colorless intermediate that is oxidized by ferric ions to a colored compound: methylene blue, an optical disk comparator with a color gradient, was used to determine the concentration of sulfide in the solution as a function of its color. The temperatures of the effluent and redox potential were measured at the holding tank or settling tank 8 using standard equipment.
# [4] = system: bacteria from the sludge sample (Shigella/Escherichia coli/Salmonella, Clostridium, Desulfovibrio type)
# [5] = system: SRB bacteria that produce H2S; conditions: treatment with nitrite alone; cited from earlier work
# [6] = system: Desulfovibrio vulgaris Hindelborough (DvH); conditions: SRB pure strain (DvH alone), FIG. 2
# Excerpt: FIG. 2 represents the relationship between the quantity of biomass (%) and the production of H2S (mM) for a stationary phase culture of DvH bacteria in the presence of different concentrations of nitrites or nitrates in the culture medium. The quantity of biomass (bacterial survival) is expressed as the % optical density (OD) at 600 nm [nanometer] compared with the OD at 600 nm of the biomass for a DvH culture on a lactate/sulfate medium in the absence of treatment, this culture representing 100%;
# In FIG. 2, the quantities of biomass (% growth) and production of H2S (mM) are shown under the following conditions: ? =% growth+nitrite, ? =H2S production+nitrite, ? =% growth+nitrate, ? H2S production+nitrate;
# In FIG. 2, bacterial survival was monitored.
structure (smiles),measurement,setting,value
[Fe] [iron],effect of metabolic inhibitor on DvH culture / H2S production,[1],induced a drastic oxidizing stress and caused bacterial death
O=[N+]([O-])O [nitrate],concentration giving visible and substantial inhibition of H2S production,[1],15 mM
same,reduction of the production of H2S,[1],approximately 90%
same,production of H2S,[2],no significant reduction in H2S production was observed
O=NO [nitrite],concentration giving visible and substantial inhibition of H2S production,[1],≥ 5 mM
same,reduction of the production of H2S,[1],approximately 90%
same,biomass,[2]; FIG. 3 panel A,maintaining the biomass
same,production of H2S,[2],reduction in the production of H2S
same,rise in the sulfide concentrations after stopping the nitrite treatment,[3]; after 24 h,no more than 25%
same,rise in the sulfide concentrations after stopping the nitrite treatment,[3]; after stopping treatment,approximately 10%
same,biomass (bactericidal effect),[4]; beyond 5 mM of nitrite,biomass was slightly affected
same,inhibiting effect on H2S production,[4]; beyond 5 mM of nitrite,inhibiting effect on H2S production reduced
same,cell death,"[4]; even in the absence of Shewanella, concentration 5 mM or less",did not induce cell death
same,duration of the effect on the bacteria after nitrite is consumed,[4]; nitrite consumed over time,long-lasting effect or remanence effect
same,concentration from which a drop in the production of H2S is induced,[4]; sludge sample,≥ 3 mM
same,effect on hydrogen sulfide production,[5],No effect on hydrogen sulfide production is observed
O=O [oxygen],effect of metabolic inhibitor on DvH culture / H2S production,[1],production of H2S restarted as soon as the redox potential of the medium became negative again
O=NO [sodium nitrite],bacterial survival,[6],lethal effect on bacteria
same,maximum quantity of dissolved sulfide H2S at the outlet from the force main,"[3]; 2.5 g/m^3 to 6 g/m^3 per g/m^3 of sulfide to be reduced, every other day or overnight",≤ 1.5 mg/L
same,quantity of dissolved sulfites at the force main outlet,[3]; 4 g to 5 g per gram of dissolved sulfide produced in the absence of treatment,≤ 1 mg/L
same,reduction of dissolved sulfide produced by the conduit,[3]; daily treatments with 2.5 g/m^3 to 6 g/m^3 of NaNO2,1 g/m^3
same,remanence of inhibiting activity,"[3]; on-site, transient and intermittent treatment",remanence effect
